{
  "source": "paper PMC7451048",
  "about": "(Drug metabolism letters, 2019)",
  "key": {"OATP2B1": {"target": "T1, OATP2B1 (Homo sapiens, UniProt O94956)", "T1 sequence (O94956 1-709)": "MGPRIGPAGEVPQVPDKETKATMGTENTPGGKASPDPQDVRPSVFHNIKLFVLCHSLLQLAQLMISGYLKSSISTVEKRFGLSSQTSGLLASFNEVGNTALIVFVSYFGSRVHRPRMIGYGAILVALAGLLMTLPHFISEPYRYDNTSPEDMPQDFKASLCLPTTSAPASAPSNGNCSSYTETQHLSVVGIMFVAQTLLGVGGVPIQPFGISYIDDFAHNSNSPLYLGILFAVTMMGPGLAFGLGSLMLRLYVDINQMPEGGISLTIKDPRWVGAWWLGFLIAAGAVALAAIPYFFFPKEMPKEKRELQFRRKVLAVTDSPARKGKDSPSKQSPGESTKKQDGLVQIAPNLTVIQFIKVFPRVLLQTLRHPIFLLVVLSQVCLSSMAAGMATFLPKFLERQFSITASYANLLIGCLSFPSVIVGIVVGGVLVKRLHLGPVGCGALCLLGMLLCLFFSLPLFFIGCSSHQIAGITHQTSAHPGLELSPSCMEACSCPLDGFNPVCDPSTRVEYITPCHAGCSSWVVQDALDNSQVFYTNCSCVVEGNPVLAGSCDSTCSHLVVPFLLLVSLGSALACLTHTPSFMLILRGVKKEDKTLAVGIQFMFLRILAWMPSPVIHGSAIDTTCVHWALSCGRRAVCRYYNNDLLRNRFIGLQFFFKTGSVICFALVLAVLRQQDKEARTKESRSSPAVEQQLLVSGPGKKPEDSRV"}, "[1]": {"settings": "co-administration of clopidogrel and ticlopidine; ref [25]; cited from earlier work"}, "[2]": {"settings": "higher than BUP; ref [10], [13], [16], [17]; cited from earlier work"}},
  "data": [
    {"smiles": "CC(NC(C)(C)C)C(O)c1cccc(Cl)c1", "note": "(stereo not drawn) [EB, Erythrohydrobupropion]", "values": [
      {"measurement": "Substrate of OATP2B1 (conclusion)", "setting": "OATP2B1", "value": "not substrates"}
    ]},
    {"smiles": "C[C@H]1NC(C)(C)CO[C@]1(O)c1cccc(Cl)c1", "note": "[OHB, Hydroxybupropion]", "values": [
      {"measurement": "Decrease in AUC", "setting": "[1]", "value": "60–89%"},
      {"measurement": "Circulating concentration relative to the parent drug", "setting": "[2]", "value": "3 – 30 fold"},
      {"measurement": "Substrate of OATP2B1 (conclusion)", "setting": "OATP2B1", "value": "not substrates"}
    ]},
    {"smiles": "C[C@H](NC(C)(C)C)[C@@H](O)c1cccc(Cl)c1", "note": "[TB, Threohydrobupropion]", "values": [
      {"measurement": "Circulating concentration relative to the parent drug", "setting": "[2]", "value": "3 – 30 fold"},
      {"measurement": "Substrate of OATP2B1 (conclusion)", "setting": "OATP2B1", "value": "not substrates"}
    ]}
  ]
}
